One block for each compound: values may come before it.
Test: solvent given as SMILES

Structure (SMILES): O=P1(c2ccccc2)C2=C(c3ccccc31)S(=O)(=O)c1ccccc12 (centres undefined)
- absorption maximum (in C1CCCCC1): 380 nm
- absorption maximum (in CC#N): 383 nm
- absorption maximum (in CCO): 386 nm
- absorption maximum (in ClCCl): 386 nm

Structure (SMILES): COc1ccc(-c2ccc3c(c2)c2cc(-c4ccc(OC)cc4)ccc2n3-c2ccc(C(=O)c3ccc4sc5ccccc5c4c3)nc2)cc1
- absorption maximum (in Cc1ccccc1): 390 nm

Structure (SMILES): O=C1c2ccccc2C(=O)N1c1ccc(Cn2cncn2)cc1
- absorption maximum (in C1CCOC1): 293 nm
- absorption maximum (in C1COCCO1): 284 nm
- absorption maximum (in CC#N): 315 nm
- absorption maximum (in CC(C)=O): 304 nm
- absorption maximum (in CC(C)O): 306 nm
- absorption maximum (in CCCCCC): 278 nm
- absorption maximum (in CCCCO): 302 nm
- absorption maximum (in CCO): 308 nm
- absorption maximum (in CCOC(C)=O): 290 nm
- absorption maximum (in CCOCC): 289 nm
- absorption maximum (in CN(C)C=O): 314 nm
- absorption maximum (in CO): 312 nm
- absorption maximum (in CS(C)=O): 320 nm
- absorption maximum (in Cc1ccccc1): 283 nm
- absorption maximum (in ClCCl): 294 nm

Structure (SMILES): CCC(C)(C)c1ccc2c(c1)C(CC)(CC)c1cc(-c3ccc4c(c3)C(CC)(CC)c3cc(C(C)(C)CC)ccc3-4)ccc1-2
- absorption maximum (in C1CCCCC1): 331 nm

Structure (SMILES): c1csc(-c2ccc(-c3cccs3)s2)c1
- absorption maximum (in CC#N): 351 nm
- absorption maximum (in ClCCl): 355 nm

Structure (SMILES): COc1ccc(/C=C/c2cc(/C=C/c3ccc(N(c4ccccc4)c4ccccc4)cc3)nc(/C=C/c3ccc(N(C)C)cc3)n2)cc1
- absorption maximum (in ClCCl): 386 nm

Structure (SMILES): CC(C)[Si]1(C(C)C)c2cc(C=O)ccc2-c2ccc(N(c3ccccc3)c3ccccc3)cc21
- absorption maximum (in C1CCCCC1): 403 nm
- absorption maximum (in CC#N): 392 nm
- absorption maximum (in CCO): 396 nm
- absorption maximum (in CCOCC): 393 nm
- absorption maximum (in CS(C)=O): 398 nm
- absorption maximum (in ClCCl): 401 nm
- absorption maximum (in c1ccccc1): 398 nm

Structure (SMILES): CC1=CC(/C=C/c2ccc(OCCCN=[N+]=[N-])cc2)=[N+]2C1=C(c1ccc(N(C)C)cc1)c1c(C)cc(C)n1[B-]2(F)F
- absorption maximum (in CO): 568 nm

Structure (SMILES): Cn1c(=O)c(/N=N/c2ccc(/N=N/c3ccc(S(=O)(=O)O)cc3)cc2)c(O)c2ccccc21
- absorption maximum (in C1CCOC1): 454 nm
- absorption maximum (in CC(C)=O): 453 nm
- absorption maximum (in CCOC(C)=O): 452 nm
- absorption maximum (in CO): 452 nm
- absorption maximum (in CS(C)=O): 460 nm
- absorption maximum (in Cc1ccccc1): 458 nm
- absorption maximum (in ClCCl): 457 nm
- absorption maximum (in O): 447 nm

Now from value to compound:

- absorption maximum (in ClCCl): 416 nm
Structure (SMILES): CCCCCC#Cc1cc(C#CCCCCC)c2ccc3c(C(=O)c4ccccc4)cc(C#CCCCCC)c4ccc1c2c43

- absorption maximum (in CCCCCC): 570 nm
- absorption maximum (in ClCCl): 570 nm
Structure (SMILES): CC(C)[Si](C#Cc1c2ccccc2c(C#C[Si](C(C)C)(C(C)C)C(C)C)c2nc3ccccc3nc12)(C(C)C)C(C)C

- absorption maximum (in ClCCl): 310 nm
Structure (SMILES): Cc1cc2ccsc2c2[nH]c3ccccc3c12

- absorption maximum (in C1CCCCC1): 310 nm
Structure (SMILES): CCn1c2ccccc2c2ccc(-c3ccc(OC)cc3)cc21

- absorption maximum (in C1CCOC1): 379 nm
Structure (SMILES): COc1ccc(C(=Cc2ccc(/C=C/c3ccc(C#N)cc3)cc2)c2ccc(OC)cc2)cc1

- absorption maximum (in C1CCOC1): 409 nm
- absorption maximum (in CN(C)C=O): 409 nm
Structure (SMILES): O=C(O)c1ccc2cc3cc(C(=O)O)ccc3cc2c1

- absorption maximum (in O): 290 nm
Structure (SMILES): Nc1ncc2nc[nH]c2n1

- absorption maximum (in C1CCCCC1): 444 nm
Structure (SMILES): c1ccc(-c2cc3cccc4cc(-c5ccccc5)c5cc(-c6cc7[b-]8c(c6)c(-c6ccccc6)cc6cccc(cc7-c7ccccc7)[n+]86)cc2[b-]5[n+]34)cc1

- absorption maximum (in ClCCl): 352 nm
Structure (SMILES): COc1cc(/C=C/c2ncc(-c3ccncc3)o2)cc(OC)c1OC

- absorption maximum (in CC#N): 551 nm
- absorption maximum (in CCO): 556 nm
- absorption maximum (in CN(C)C=O): 554 nm
- absorption maximum (in O): 554 nm
Structure (SMILES): CCN(CC)c1ccc2c(-c3ccc(S(=O)(=O)O)cc3S(=O)(=O)[O-])c3ccc(=[N+](CC)CC)cc-3oc2c1

- absorption maximum (in C1CCCCC1): 315 nm
- absorption maximum (in CO): 315 nm
Structure (SMILES): C/C(=C\c1ccccc1)c1nc2ccccc2o1

- absorption maximum (in ClCCl): 330 nm
Structure (SMILES): CC1(C)c2ccccc2-c2sc3ccccc3c21

- absorption maximum (in ClCCl): 404 nm
Structure (SMILES): N#CC(C#N)=Cc1ccc2c(c1)c1ccccc1n2-c1cccc2ccccc12

— the Deep4Chem optical property database
